Experimental findings from US8569267B2, “Tetracyclic tetrahydrofuran derivatives containing cyclic amine side chain” (Janssen Pharmaceutica, NV, priority 2005, dated 2013) are described below.

Each structure is given as a SMILES string.

The target in assay [1] is T1, human cloned 5-HT2C receptor, expressed in CHO cells (Homo sapiens, UniProt P28335).
T1 construct: expressed in transfected cells; host or cells: CHO cells
T1 sequence (P28335 33-458): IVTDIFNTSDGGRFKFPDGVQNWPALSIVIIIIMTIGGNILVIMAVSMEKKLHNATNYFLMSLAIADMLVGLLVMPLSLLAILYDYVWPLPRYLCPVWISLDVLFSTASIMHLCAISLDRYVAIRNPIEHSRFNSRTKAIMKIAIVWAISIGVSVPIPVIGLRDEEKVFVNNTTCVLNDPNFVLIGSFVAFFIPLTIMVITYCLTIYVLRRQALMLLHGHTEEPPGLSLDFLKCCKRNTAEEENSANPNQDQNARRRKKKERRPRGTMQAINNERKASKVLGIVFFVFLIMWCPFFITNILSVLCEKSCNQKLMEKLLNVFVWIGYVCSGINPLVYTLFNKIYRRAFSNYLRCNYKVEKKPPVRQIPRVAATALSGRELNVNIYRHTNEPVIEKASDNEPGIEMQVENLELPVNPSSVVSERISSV
The assay can be described thus: In vitro binding affinity for 5-HT2C receptor ([3H]mesulergine radioligand binding). To be noted: human cloned 5-HT2C receptor; for IC50: read-out: 5-HT2C pIC50 (converted). The method in brief:
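Competition radioligand binding: varying test-compound concentrations incubated with receptor preparation and radioligand to binding equilibrium. Bound radioactivity separated from free and counted; affinity inferred from concentration-dependent inhibition of radioligand binding.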

Assay [2] addresses T2, human Dopamine D2L receptor (Homo sapiens, UniProt P14416).
T2 construct: expressed in transfected cells; host or cells: CHO cells
The assay can be described thus: In vitro binding affinity for human D2L receptor ([3H]Spiperone binding). To be noted: human D2L receptor-transfected CHO cell membranes; for IC50: read-out: D2L pIC50 (converted). The method in brief: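 Membranes from CHO cells transfected with the receptor were incubated with [3H]Spiperone (diluted to 2 nmol/L before addition) and compound for 30 min at 37° C. Buffer was Tris-HCl, pH 7.7, with NaCl, CaCl2, MgCl2 and KCl, and non-specific binding was defined with 10^−6 mol/l Butaclamol. Bound radioactivity was collected by filtration, counted by scintillation, and competition curves calculated as percent specific binding.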

The target in assay [3] is T3, human cloned 5-HT2A receptor, expressed in L929 cells (Homo sapiens, UniProt P28223).
T3 construct: expressed in transfected cells; host or cells: L929 cells
T3 sequence (P28223 whole entry): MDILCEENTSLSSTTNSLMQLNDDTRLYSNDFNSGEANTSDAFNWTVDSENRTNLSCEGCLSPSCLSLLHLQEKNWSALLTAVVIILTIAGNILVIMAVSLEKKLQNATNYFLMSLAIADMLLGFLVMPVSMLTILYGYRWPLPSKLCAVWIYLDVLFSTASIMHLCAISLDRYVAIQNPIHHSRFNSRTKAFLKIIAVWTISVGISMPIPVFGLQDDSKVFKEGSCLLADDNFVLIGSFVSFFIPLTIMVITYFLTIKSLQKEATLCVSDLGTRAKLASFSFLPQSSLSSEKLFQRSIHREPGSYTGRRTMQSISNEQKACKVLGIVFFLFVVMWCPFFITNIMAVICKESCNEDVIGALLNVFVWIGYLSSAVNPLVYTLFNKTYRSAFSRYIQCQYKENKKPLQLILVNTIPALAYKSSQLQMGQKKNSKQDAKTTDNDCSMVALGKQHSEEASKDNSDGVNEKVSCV
The assay can be described thus: In vitro binding affinity for 5-HT2A receptor ([125I]R91150 radioligand binding). To be noted: human cloned 5-HT2A receptor in L929 cells, [125I]R91150; for IC50: read-out: 5-HT2A pIC50 (converted). Summed up:
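Competition radioligand binding to human cloned 5-HT2A receptor expressed in L929 cells, using [125I]R91150 with test compound at various concentrations. At equilibrium, receptor-bound radioactivity was separated from free and counted. Affinity reflects inhibition of radioligand binding.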

For assay [4], the target named is T4, NET (norepinephrine transporter) (Rattus norvegicus, UniProt Q63380).
T4 construct: Cortex from rat brain was collected and homogenised; from tissue; host or cells: rat brain cortex
T4 sequence (Q63380 1-617): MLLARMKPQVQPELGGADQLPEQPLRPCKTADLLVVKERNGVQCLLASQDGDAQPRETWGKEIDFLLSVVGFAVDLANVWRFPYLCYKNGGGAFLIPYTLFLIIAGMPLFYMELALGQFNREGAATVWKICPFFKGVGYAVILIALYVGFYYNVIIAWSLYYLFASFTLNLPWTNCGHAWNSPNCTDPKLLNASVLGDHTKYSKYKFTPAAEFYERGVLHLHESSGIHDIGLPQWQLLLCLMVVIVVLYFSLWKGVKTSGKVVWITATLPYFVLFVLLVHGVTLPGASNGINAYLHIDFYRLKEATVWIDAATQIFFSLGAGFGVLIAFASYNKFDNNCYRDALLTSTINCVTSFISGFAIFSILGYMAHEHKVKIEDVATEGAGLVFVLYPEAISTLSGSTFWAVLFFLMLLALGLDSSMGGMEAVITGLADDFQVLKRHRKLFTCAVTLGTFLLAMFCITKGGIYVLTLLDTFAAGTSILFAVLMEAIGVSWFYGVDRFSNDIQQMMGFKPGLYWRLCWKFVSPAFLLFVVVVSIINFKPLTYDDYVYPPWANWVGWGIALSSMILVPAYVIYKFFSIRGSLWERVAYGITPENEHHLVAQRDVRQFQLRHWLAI
Nature of the assay: In vitro determination of NET reuptake inhibition ([3H]Nixosetine binding, rat brain cortex). Particulars: rat brain cortex; for IC50: read-out: NET pIC50 (converted). Summed up:
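Rat cortex homogenised in Tris 50 mM, NaCl 120 mM, KCl 5 mM, pH 7.4 was used for competition binding against [3H]nisoxetine. Bound radioligand was collected by filtration on GF/B filters and counted by scintillation. Percentage specific binding and competition curves were derived.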

T2 sequence (P14416 whole entry): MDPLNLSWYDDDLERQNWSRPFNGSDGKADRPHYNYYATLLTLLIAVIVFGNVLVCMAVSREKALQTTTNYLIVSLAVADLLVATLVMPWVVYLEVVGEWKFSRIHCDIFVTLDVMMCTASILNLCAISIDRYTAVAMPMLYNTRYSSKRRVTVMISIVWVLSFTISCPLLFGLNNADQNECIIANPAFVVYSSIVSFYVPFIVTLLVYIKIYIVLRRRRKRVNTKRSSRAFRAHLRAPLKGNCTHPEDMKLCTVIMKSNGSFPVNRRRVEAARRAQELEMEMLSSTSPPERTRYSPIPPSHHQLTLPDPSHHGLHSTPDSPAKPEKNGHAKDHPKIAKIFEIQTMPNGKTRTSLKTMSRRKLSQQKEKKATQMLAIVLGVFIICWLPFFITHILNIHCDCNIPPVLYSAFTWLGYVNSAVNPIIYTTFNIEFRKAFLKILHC

Regarding `Fc1ccc2c(c1)C1OC(CN3CCN(Cc4cnc(-c5ccccc5)[nH]4)CC3)CC1c1ccccc1C2` (centres unmarked) [Compound 67], the IC50 in assay [1] is 4.27 nM; in assay [2], 8.51 nM; in assay [3] it was 3.16 nM; in assay [4], 4900 nM.
On the same counts, the results for `CCCCNC(=S)N1CCN(C[C@H]2C[C@@H]3c4ccccc4Cc4ccc(F)cc4[C@@H]3O2)CC1` [Compound 108] are 16.2 nM, 29.5 nM, 4.57 nM and 3240 nM.
On the same counts, the results for `COCC1CCCN1CC1CC2c3ccccc3Cc3ccc(F)cc3C2O1` (mixture of isomers) [Compound 38] are 15.5 nM, 224 nM, 13.5 nM and 5130 nM.
Take `O=[N+]([O-])c1ccc(-c2ccc(CN3CCN(CC4CC5c6ccccc6Cc6ccc(F)cc6C5O4)CC3)o2)cc1` (centres unmarked) [Compound 63]: the IC50 in assay [1] was 50.1 nM; in assay [2], 74.1 nM; in assay [3], 27.5 nM; in assay [4] it was 562 nM.
On the same counts, the results for `OC(COCc1ccco1)CN1CCN(CC2CC3c4ccccc4Cc4ccc(F)cc4C3O2)CC1` (mixture of isomers) [Compound 55] are 3.16 nM, 8.13 nM, 2.69 nM and 1820 nM.
`Fc1ccc2c(c1)C1OC(CN3CCN(Cc4cccc5ccccc45)CC3)CC1c1ccccc1C2` (centres unmarked) [Compound 75]: the IC50 in assay [1] was 97.7 nM; in assay [2] it was 63.1 nM; in assay [3], 17.4 nM; in assay [4], 1620 nM.
For the molecule `COc1ccc(OC2CCN(CC3CC4c5ccccc5Cc5ccc(F)cc5C4O3)C2)cc1` (mixture of isomers) [Compound 33], the IC50 in assay [1] was 2 nM; in assay [2], 7.94 nM; in assay [3] it was 6.17 nM; in assay [4] it was 4900 nM.
The like results for `O=S(=O)(c1ccccc1)N1CCN(CC2CC3c4ccccc4Cc4ccc(F)cc4C3O2)CC1` (centres unmarked) [Compound 106] were, in that order, 61.7 nM, 44.7 nM, 16.6 nM and 9550 nM.
As to `CCCCCC(=Cc1ccccc1)CN1CCN(CC2CC3c4ccccc4Cc4ccc(F)cc4C3O2)CC1` (centres unmarked) [Compound 50], the IC50 was 105 nM in assay [1], 70.8 nM in assay [2], 34.7 nM in assay [3] and 2140 nM in assay [4].
In the case of `N#CC1CCCN(C[C@H]2C[C@@H]3c4ccccc4Cc4ccc(F)cc4[C@@H]3O2)CC1.O=C(O)C(=O)O.O=C(O)C(=O)O` (mixture of isomers) [Compound 268], the “5-HT2C pIC50” value in assay [1] was determined as 8.24. In assay [2], the “D2L pIC50” value was determined as 7.92. Moreover, in assay [3], the “5-HT2A pIC50” value came to 8.52. Besides, the “NET pIC50” value in assay [4] is listed as under 5.
`Fc1ccc2c(c1)C1OC(CN3CCN(Cc4ccsc4)CC3)CC1c1ccccc1C2` (centres unmarked) [Compound 59]: the IC50 in assay [1] was 49 nM; in assay [2], 6.92 nM; in assay [3] it was 14.8 nM; in assay [4], 1260 nM.
The like results for `Fc1ccc2c(c1)C1OC(CN3CCN(c4ccc(C(F)(F)F)cn4)CC3)CC1c1ccccc1C2` (centres unmarked) [Compound 120] were, in that order, 87.1 nM, 363 nM, 35.5 nM and over 10000 nM.
On to `COCCC1CN(C[C@H]2C[C@@H]3c4ccccc4Cc4ccc(F)cc4[C@@H]3O2)CCO1` (some centres unmarked) [Compound 130], for which the IC50 is 5.37 nM in assay [1], 21.9 nM in assay [2], under 10 nM in assay [3] and 3550 nM in assay [4].
For the molecule `N#CCCC1CCCN(CC2CC3c4ccccc4Cc4ccc(F)cc4C3O2)C1` (mixture of isomers) [Compound 169], the IC50 is 2.88 nM in assay [1], 13.8 nM in assay [2], 3.16 nM in assay [3] and 1620 nM in assay [4].
For `O=C(NC(=S)N1CCN(CC2CC3c4ccccc4Cc4ccc(F)cc4C3O2)CC1)c1ccccc1` (centres unmarked) [Compound 111], the IC50 was 9.77 nM in assay [1], 27.5 nM in assay [2], 3.89 nM in assay [3] and 3090 nM in assay [4].
The like results for `COc1cc(OC)c(CNC(=O)C2CCN(CC3CC4c5ccccc5Cc5ccc(F)cc5C4O3)CC2)c(OC)c1` (centres unmarked) [Compound 186] were, in that order, 2.34 nM, 7.08 nM, 2.4 nM and 3550 nM.
On the same counts, the results for `CCS(=O)(=O)N1CCN(CC2CC3c4ccccc4Cc4ccc(F)cc4C3O2)CC1` (centres unmarked) [Compound 103] are 50.1 nM, 19.5 nM, 7.76 nM and over 10000 nM.
As to `O=C(C1CCN(CC2CC3c4ccccc4Cc4ccc(F)cc4C3O2)CC1)N1CC=CC1` (centres unmarked) [Compound 201], the IC50 is 10.5 nM in assay [1], 41.7 nM in assay [2], 0.617 nM in assay [3] and over 10000 nM in assay [4].
Regarding `O=C(O)C(=O)O.OC1CCN(CC2CC3c4ccccc4Oc4ccc(Br)cc4C3O2)CC1` (centres unmarked) [Compound 286], in assay [1], the “5-HT2C pIC50” value amounted to 7.81. In addition, in assay [2], the “D2L pIC50” value is listed as 7.50. Further, in assay [3], the “5-HT2A pIC50” value turned out to be 8.33. For the same molecule, in assay [4], the “NET pIC50” value is under 5.
As to `O=[N+]([O-])c1ccc(CN2CCN(CC3CC4c5ccccc5Cc5ccc(F)cc5C4O3)CC2)cc1` (centres unmarked) [Compound 73], the IC50 in assay [1] was 46.8 nM; in assay [2] it was 18.6 nM; in assay [3], 20.4 nM; in assay [4], 3630 nM.
In the case of `CC1CN(CC2CC3c4ccccc4Cc4ccc(F)cc4C3O2)C(C)CN1.O=C(O)C(=O)O` (mixture of isomers) [Compound 280], in assay [1], the “5-HT2C pIC50” value turned out to be 6.53. The “D2L pIC50” value in assay [2] amounted to 5.40. Besides, the “5-HT2A pIC50” value in assay [3] was 6.53. The “NET pIC50” value in assay [4] is recorded as under 5.
`OC(COc1ccc(F)cc1)CN1CCN(CC2CC3c4ccccc4Cc4ccc(F)cc4C3O2)CC1` (mixture of isomers) [Compound 57]: the IC50 in assay [1] is 17.8 nM; in assay [2], 18.6 nM; in assay [3], 7.24 nM; in assay [4], over 10000 nM.
The like results for `Fc1ccc(OCCN2CCN(CC3CC4c5ccccc5Cc5ccc(F)cc5C4O3)CC2)cc1` (centres unmarked) [Compound 54] were, in that order, 8.13 nM, 2.45 nM, 7.59 nM and 2190 nM.
On the same counts, the results for `NCCN1CCN(CC2CC3c4ccccc4Cc4ccc(F)cc4C3O2)CC1` (centres unmarked) [Compound 47] are 34.7 nM, 10 nM, 6.46 nM and over 10000 nM.
As to `Cc1ccc(C(=O)OC2CCN(CC3CC4c5ccccc5Cc5ccc(F)cc5C4O3)C2)cc1` (mixture of isomers) [Compound 15], the IC50 in assay [1] is 6.31 nM; in assay [2], 7.41 nM; in assay [3], 7.94 nM; in assay [4], 2090 nM.
For `Cc1ccc(S(=O)(=O)N2CCN(CC3CC4c5ccccc5Cc5ccc(F)cc5C4O3)CC2)cc1` (centres unmarked) [Compound 107], the IC50 was 331 nM in assay [1], 81.3 nM in assay [2], 83.2 nM in assay [3] and over 10000 nM in assay [4].
As for `OC1CCN(C[C@H]2C[C@@H]3c4ccccc4Cc4ccc(F)cc4[C@@H]3O2)C1` (stereo partly drawn) [Compound 1, [2R-(2α, 3aα, 12bβ)]-(3′RS) 1-(11-fluoro-3,3a,8,12b-tetrahydro-2H-1-oxa-dibenzo[e,h]azulen-2-ylmethyl)-pyrrolidin-3-ol.oxalate (1:1)], the IC50 in assay [1] was 0.372 nM; in assay [2] it was 7.41 nM; in assay [3], 0.692 nM; in assay [4], 479 nM.
With `CCOC(=O)C1CCCCN1C(=O)C1CCN(CC2CC3c4ccccc4Cc4ccc(F)cc4C3O2)CC1` (mixture of isomers) [Compound 205], the IC50 in assay [1] was 4.47 nM; in assay [2] it was 12.6 nM; in assay [3], under 10 nM; in assay [4], 8510 nM.
As for `Fc1ccc2c(c1)C1OC(CN3CCN(Cc4cccs4)CC3)CC1c1ccccc1C2` (centres unmarked) [Compound 58], the IC50 in assay [1] is 25.7 nM; in assay [2], 7.41 nM; in assay [3], 11 nM; in assay [4], 977 nM.
